One series concerns B16 melanoma line. Nature of the series: Topical treatment of B16 melanoma in mice. The settings on record: microemulsion 10 mg/ml, 20 microlitre, 2 times per day, after 4 days.
For series [1], the system named is Carrageenan-induced inflammation in the rear right footpad. Nature of the series: Carrageenan-induced footpad inflammation, foot thickness. In kind it is in vivo, mice. The settings on record: for reduction of inflammation (foot thickness): microemulsion 10 mg/ml VB12 analog, 20 microL on shaved belly, 14 days; for reduction of inflammation (foot thickness) vs untreated animals: microemulsion 10 mg/ml, topical on shaved belly, FIG. 8.

For series [2] the following is noted: microemulsions compared to a hydrogel; cited from earlier work.
The nature of series [3]: Distribution of 125I-labeled proteins after transdermal application in a microemulsion. The settings on record: conscious Balb/C mice; for counts in the organs of the intestine: presumed due to grooming.
A short description of series [4]: Weight loss microemulsion in overweight Swiss mice. The class given is in vivo. The settings on record: topical microemulsion 1 mg/ml daily. As for the experimental part: A microemulsion for topical weight loss was prepared according to the methods described in Examples 1 and 7, and included insulin, or insulin-like growth factor 1 (IGF1) or GHRP-6 at a final concentration of 1 mg/ml. A standardised volume of microemulsion was applied daily (TD) to an area of shaved skin on the belly of conscious Swiss strain mice. A standardised volume of each of insulin, or insulin-like growth factor 1 (IGF1) or GHRP-6 at a final concentration of 1 mg/ml in saline was injected sub cutaneously (SC) into the belly region of Swiss strain mice. Animal weights were measured 3 times per week. Following 2 weeks of treatment the mice were euthanased and their tissues removed and weighed. The weight of the animals with time is plotted in FIG. 11. It can be seen that there was a decrease in body weight of animals treated with the topical insulin of up to 15% within 2 weeks (FIG. 11).

Where a name gives a salt, the structure may show the parent alone.

The values that follow come from patent publication US20070243132A1, “Transdermal delivery of pharmaceutical agents” (priority 2005, published 2007).

Take `O=c1[nH]cc(F)c(=O)[nH]1` [5-fluorouracil]: in the series with B16 melanoma line, the “growth rate of the tumour” value is listed as “reduction in growth rate of the tumour”.

For `N.N.O=C([O-])C1(C(=O)[O-])CCC1.[Pt+2]` [Carboplatin], in the series on B16 melanoma line, the “body weight of the animals” value was “no reduction in body weight” and the “growth rate of the tumour” value is given as “reduction in growth rate of the tumour”.

Take `N.N.[Cl][Pt][Cl]` [Cis-Platinum]: in the series with B16 melanoma line, the “body weight of the animals” value is given as “no reduction in body weight” and the “growth rate of the tumour” value was “reduction in growth rate of the tumour”.

Regarding `C/C1=C2/[N-][C@H]([C@H](CC(N)=O)[C@@]2(C)CCC(=O)NC[C@@H](C)OP(=O)([O-])O[C@H]2[C@@H](O)[C@@H](n3cnc4cc(C)c(C)cc43)O[C@@H]2CO)[C@]2(C)N=C(/C(C)=C3N=C(/C=C4N=C1[C@@H](CCC(N)=O)C\4(C)C)[C@@H](CCC(N)=O)[C@]\3(C)CC(N)=O)[C@@H](CCC(N)=O)[C@]2(C)CC(N)=O.[CH2-][C@H]1O[C@@H](n2cnc3c(N)ncnc32)[C@H](O)[C@@H]1O.[Co]` [adenosyl-cobalamin], in series [1] (C57/BI6 mice, VB12 analog microemulsions, FIG. 7), the “comparison of reduction in inflammation among the compositions” value is listed as “greatest reduction in inflammation”. For the same compound, in series [1] (C57/BI6 mice, FIG. 7), the “reduction of inflammation (foot thickness)” value is given as “active in reducing inflammation”. For the same compound, the “reduction of inflammation (foot thickness) vs untreated animals” value (from here on “reduction … vs untreated animals”) in series [1] (C57/BI6 mice) was “active in reducing inflammation”. Also, the “level of inflammation in the rear right foot-pad vs untreated animals” value in series [1] (C57/BI6 mice, microemulsions of Example 13, topical on shaved belly, FIG. 6) is recorded as “significantly lower level of inflammation”.

As for `C/C1=C2/[N-][C@H]([C@H](CC(N)=O)[C@@]2(C)CCC(=O)NC[C@H](C)OP(=O)([O-])O[C@H]2[C@@H](O)[C@@H](n3cnc4cc(C)c(C)cc43)O[C@@H]2CO)[C@]2(C)N=C(/C(C)=C3N=C(/C=C4N=C1[C@@H](CCC(N)=O)C\4(C)C)[C@@H](CCC(N)=O)[C@]\3(C)CC(N)=O)[C@@H](CCC(N)=O)[C@]2(C)CC(N)=O.[Co+2]` [cobalamin], the “reduction of inflammation (foot thickness)” value in series [1] (C57/BI6 mice, FIG. 7) was “active in reducing inflammation”.

Turning to `C/C1=C2/[N-][C@H]([C@H](CC(N)=O)[C@@]2(C)CCC(=O)NC[C@@H](C)OP(=O)([O-])O[C@H]2[C@@H](O)[C@@H](n3cnc4cc(C)c(C)cc43)O[C@@H]2CO)[C@]2(C)N=C(/C(C)=C3N=C(/C=C4N=C1[C@@H](CCC(N)=O)C\4(C)C)[C@@H](CCC(N)=O)[C@]\3(C)CC(N)=O)[C@@H](CCC(N)=O)[C@]2(C)CC(N)=O.[Co+3].[OH-]` [hydroxycobalamin, reference compound], the “reduction of inflammation (foot thickness)” value in series [1] (C57/BI6 mice, FIG. 7) is “active in reducing inflammation”.

`CCCNC(C)C(=O)Nc1ccccc1C` (stereo not shown) [prilocaine hydrochloride]: the “increase of transdermal flux” value in series [2] was roughly 10 times.

“EGF: 125I-labeled Epidermal Growth Factor in a microemulsion”: in series [3] (after 3 hours, FIG. 3), the “appearance of 125I in skin, muscle and shaved area” value is “rapid appearance of ^125I in skin, muscle and the shaved area of the skin”. Moreover, in series [3] (after 3 hours), the “counts in the organs of the intestine” value is “appearance of counts in the stomach, SI-1, SI-2, caecum and faeces”.

With H-Met-Gln-Glu-Asn-Ser-OH [MLIF-A], the “reduction … vs untreated animals” value in series [1] (C57/BI6 mice) is on record as “active in reducing inflammation”.

As for H-Met-Gln-Ile-Asn-Ser-OH [MLIF-B], in series [1] (C57/BI6 mice), the “reduction … vs untreated animals” value is on record as “active in reducing inflammation”.

For H-Met-Gln-Met-Asn-Ser-OH [MLIF-C], the “reduction … vs untreated animals” value in series [1] (C57/BI6 mice) was “active in reducing inflammation”.

Take adalimumab: the “level of inflammation in the rear right foot-pad vs untreated animals” value in series [1] (microemulsion, TNFRII-Fc 5 mg/ml or adalimumab 4 mg/ml, topical, FIG. 9) is given as “significantly lower levels of inflammation”.

cyanocobalamin [reference compound]: the “reduction of inflammation (foot thickness)” value in series [1] (C57/BI6 mice, FIG. 7) was “active in reducing inflammation”.

Turning to “insulin: insulin in a microemulsion (125I-labeled in Example 5; 1 mg/ml in Example 20)”, in series [4] (2 weeks, FIG. 10), the “change of organ weights compared with other groups” value is listed as “greatest change”, the muscle mass entry is given as “increased” and the weight of skin entry is listed as “significantly reduced”. Further, in series [4] (within 2 weeks, FIG. 11), the “decrease in body weight” value was “up to 15%”. In series [3] (overnight, FIG. 4), the “appearance of 125I in skin, muscle and shaved area” value is “rapid appearance of ^125I in skin, muscle and the shaved area of the skin”. Moreover, in series [3] (overnight), the “counts in the organs of the intestine” value is “appearance of counts in the stomach, SI-1, SI-2, caecum and faeces”.
